This note sets out measurements from paper PMC8592624, “Rapid and improved oral absorption of N-butylphthalide by sodium cholate-appended liposomes for efficient ischemic stroke therapy” (Drug Delivery, 2021).

One data set can be described thus: Pharmacokinetics in rats. The data set is classed as in vivo, Sprague-Dawley rats. The procedure: Male Sprague-Dawley rats (250 ± 20 g) were obtained from the laboratory animal center of Zhengzhou University (Zhengzhou, China). The animal experiments were conducted in accordance with the Regional Ethics Committee and protocols from the Institutional Animal Care and Use Committee of Zhengzhou University. Rats were fasted overnight with free access of water before the pharmacokinetic studies. To begin with, rats were randomly assigned into three groups. […] 0.5 mL of blood was taken from rats by retro-orbital sinus at 0.083, 0.25, 0.5, 1, 2, 3, 4, 6, 8, and 10 h after administration, respectively. The concentration of NBP in plasma was determined by HPLC after suitable processing. Briefly, 300 µL methanol was mixed with 100 µL of plasma and the resultant suspension was centrifuged (12,000 rpm, 10 min). The supernatant obtained was analyzed by a validated HPLC method (Supplementary Table 2). The pharmacokinetic parameters were obtained using DAS 3.0 software (Mathematical Pharmacology Professional Committee of China) and were presented as mean ± SD. The absolute bioavailability (Fa) and the relative bioavailability (Fr) were calculated by the following equations, respectively: (4) Fa (%)=AUC0−t, oralDosei.v/AUC0−t, i.vDoseoral (5) Fr (%)=AUC0−t, formulation/AUC0−t, NBP suspension
Where AUC0−t represents the area under the pharmacokinetic curve throughout the study.

Data set [1] has as its system cerebral ischemia/reperfusion (I/R) model. In words: Cerebral ischemia/reperfusion (I/R) model, middle cerebral artery occlusion (MCAO). The class given is in vivo. The note with it: MCAO rats, 30 mg/kg p.o. The procedure: Rats (280-320 g) were divided into five groups randomly (n = 10 per group): […] After lateral neck incision, the internal carotid artery, right common carotid artery […] and external carotid artery were exposed. A surgical nylon suture was gently advanced to occlude MCA until slight resistance was felt (18-20 mm from MCA bifurcation). 1.5 hours post MCAO, reperfusion was inducted by taking out the suture and the rats were immediately orally given the predetermined formulations. The sham operated group received the same surgery in the […] of the MCAO and drug treatment. The core body temperature was kept constant (37 ± 0.5 °C) for 24 h post reperfusion. Neurological deficit of rats was then assessed by the blinded Longa's method. […] The cerebral infarct area (White) was analyzed by Image-J and represented as a percentage of the total brain area. Histological alterations of brain samples from the remaining rats were analyzed via hematoxylin and esosin (H&E) staining and then observed under a microscope. The levels of malondialdehyde (MDA), superoxide dismutase (SOD) and glutathione peroxidase (GSH-Px) in brain lysates were determined 24 h after reperfusion according to the protocols of the specific agent kit (Servicebio, Wuhan, China).

A short description of data set [2]: In vitro drug release (dialysis method). The class given is physicochemical. The procedure: The release curves of the formulations were obtained using a dialysis method (Zhang et al., [2011]). […] The following procedures were performed as above.
Data set [3] can be described thus: Biodistribution in rats after oral administration. The class given is in vivo. The note with it: p.o., 30 mg/kg, during 2 h. The procedure: Before the start of the experiment, rats were fasted while allowed to drink freely overnight. […] Rats were sacrificed 0.083, 0.25, 0.5, 1 and 2 h post-administration, and subsequently, the vital organs involving heart, liver, spleen, kidney, lung as well as brain were harvested and processed by following procedures. In brief, the harvest tissues were weighed and homogenized in cold saline. The obtained tissue lysates (100 μL) was methanol precipitated and centrifuged (4 °C, 15 min) followed by injection of the supernatant (50 μL) into HPLC. The NBP concentration in each tissue sample was calculated from the respective standard curves. […] Re= AUC0−t, tissue, formulation/AUC0−t, tissue, NBP suspension (Wang et al., [2014]) Ce=Cmax, tissue, formulation/Cmax, tissue, NBP suspension (Wang et al., [2021])

The mark [4] stands for this setting: i.v., NBP solution, 30 mg/kg, n = 5.

On to `CCCCC1OC(=O)c2ccccc21` (stereo not drawn) [NBP, N-butylphthalide], for which, in “Pharmacokinetics in rats” (i.v., 30 mg/kg (reference)), the “Fa (absolute bioavailability)” value turned out to be 100%. In “Pharmacokinetics in rats” (setting [4]), the AUC0-t came to 7.59 ± 0.78 µg·h/mL, the CLz came to 2.65 ± 0.25 L/h/kg, the highest concentration (Cmax) worked out at 25.51 ± 3.46 µg/mL and the tmax amounted to 4.98 min. Further, in the data set “Pharmacokinetics in rats” (p.o., 30 mg/kg), the “Fa (absolute bioavailability)” value is listed as 21.7% and the “Fr (relative bioavailability to NBP suspension)” value is 100%. Besides, in “Pharmacokinetics in rats” (p.o., 30 mg/kg, Figure 3(B)), the “time at which Cmax was observed on plasma curve” value is given as 2 h. In “Pharmacokinetics in rats” (p.o., 30 mg/kg, n = 5), this molecule registered an AUC0-t of 1.65 ± 0.32 µg·h/mL, a Cmax of 0.36 ± 0.13 µg/mL and a tmax of 61.2 ± 18.6 min. Further, the CLz in the data set “Pharmacokinetics in rats” (p.o., 30 mg/kg, n = 5, apparent clearance (CL/F)) is reported as 12.11 ± 3.76 L/h/kg. The “neurological score compared with I/R group” value in data set [1] (24 h) is “no significant difference”. In data set [1] (TTC staining, percentage of total brain area), the infarct volume came to 27.66 ± 2.59%. In addition, the “cumulative release during 12 h” value in data set [2] (SGF pH 1.2 2 h then phosphate buffer pH 6.8, 37 °C) was found to be 6.79 ± 0.99%. Further, the “cumulative drug release within 2 h” value in data set [2] (SGF pH 1.2, 37 °C, 100 rpm) is listed as “about 6%”. Besides, the “24 h cumulative drug release amount” value in data set [2] (SGF pH 1.2 then phosphate buffer pH 6.8, 37 °C) amounted to 6.79 ± 0.99%. The “organ of main accumulation” value in data set [3] is on record as “mainly in the lung”.
